US11197856B2, “Bicyclic compounds and methods for their use in treating autism” (priority 2013, dated 2021)

Key:
[1] = test system: heterozygous Shank3-deficient mice; assay: Shank3-deficient mice: olfactory habituation/dishabituation; format: in vivo; conditions: all 4 groups
Procedure: 1 to 3 month old wild-type and heterozygous Shank3-deficient mice are divided into 4 treatment groups: placebo treated wild-type, placebo treated Shank3-deficient group and two Shank3-deficient cG-2-AllylP treated groups. The animals are given placebo (water) or cG-2-AllylP formulated in water administered orally, b.i.d for 14 days. cG-2-AllylP is administered at two doses: 15 or 60 mg/kg.
Olfactory habituation/dishabituation testing is conducted in male and female mice for each group. The methodology is as previously described (Silverman et al 2010, Yang et al 2009 and Silverman et al 2010). Non-social and social odors are presented on a series of cotton swabs inserted into the home cage sequentially, each for 2 min, in the following order; water, water, water (distilled water); almond, almond, almond (1:100 dilution almond extract); banana, banana, banana (1:100 dilution artificial banana flavouring); social 1, social 1, social 1 (swiped from the bottom of a cage housing unfamiliar sex-matched B6 mice); and social 2, social 2, social 2 (swiped from the bottom of a second cage housing a different group of unfamiliar sex-matched 129/SvImJ mice). One-way repeated measures ANOVA is performed within each treatment group for each set of habituation events and each dishabituation event, followed by a Tukey post hoc test.

[2] = test system: rats exposed to hypoxic-ischemic injury (HI); assay: Hypoxic-ischemic injury (HI), modified Levine model, tissue damage score; format: in vivo, Wistar rats
Excerpt: Adult rats (Wistar, 280-310 g, male) were used. The modified Levine model preparation and experimental procedures were used (Rice et al, 1981, Ann. Neurol. :9: 131-141; Guan et al J., 1993, Cereb. Blood Flow Metab.: 13(4): 609-16). These procedures in brief, consist of an HI injury induced by unilateral carotid artery ligation followed by inhalational asphyxia in the animals with an implanted lateral ventricular cannula. A guide cannula was stereotaxically placed on the top of the dura 1.3 mm to the right of the mid-line and 7.3 mm anterior to the interaural zero plane under halothane anaesthesia. The right carotid artery was double ligated two days after the cannulation. After 1 hour recovery from the anaesthesia, each of the rats were placed in an incubator where the humidity (90±5%) and temperature (31°±0.5° C.) were controlled for another hour, then exposed to hypoxia (6% oxygen) for 10 min. […]
Coronal sections 8 μm in thickness were cut from the striatum, cerebral cortex and hippocampus and were stained with thionin and acid fuchsin. The histological outcome was assessed at three levels: (1) the mid level of the striatum, (2) where the completed hippocampus first appeared and (3) the level where the ventral horn of the hippocampus just appears. The severity of tissue damage was scored in the striatum, cortex and the CA1-2, CA3, CA4 and dentate gyrus of the hippocampus. […]

[3] = test system: fmr1-knockout mice and wild-type littermates; assay: Open Field (OF) test; format: in vivo; conditions: for exploratory behavior (number of squares entered): fmr1-knockout animals; for number of squares entered: wild-type animals
Procedure: The fmr1-knockout 2 mice (C57BL/6 background) were housed in groups of the same genotype in a temperature and humidity controlled room with a 12-h light-dark cycle (lights on 7 am to […]). Testing was conducted during the light phase. Food and water were available ad libitum. Testing was conducted on fmr1-knockout mice and their wild-type littermates. Experiments were conducted in line with the requirements of the UK Animals (Scientific Procedures) Act, 1986.
The Open Field (OF) test is a combined test that is used to determine anxiety/hyperactivity, and for habituation to a novel environment, one of the most elementary forms of learning, in which decreased exploration as a function of repeated exposure to the same environment is taken as an index of memory. This is normally studied in two sessions of exposure to the open field, a 10-min and a 24 hr habituation session.
The device used for this study is a grey PVC enclosed arena 50×30 cm divided into 10 cm squares. Mice are brought to the experimental room 5-20 min before testing. A mouse is placed into a corner square facing the corner and observed for 3 min. The number of squares entered (whole body) and rears (both front paws off the ground, but not as part of grooming) are counted. The latency to the first rear is also noted. The movement of the mouse around the field was recorded with a video tracking device for 300s (vNT4.0, Viewpoint). The latency for the mouse to enter the brightest, central part of the field total time spent in this central region, and total activity (in terms of path length in centimeters), were recorded.
The open field (OF) test is a test used to characterize explorative behavior, anxiety, and or hyperactivity in animals habituated to daily handling under novel and familiar conditions. During exposure to the open field mice will habituate to the environment and thus explore less, decreasing the amount movement they show over time.
In the present experiment, we recorded movement and rearing during an initial exposure (T1), during a second exposure after 10 minutes (T2) and during a third exposure after 24 hours (T3). Failures to reduce locomotion or rearing at 10 minutes and 24 hours indicate deficits in short and long term memory, respectively.

[4] = test system: layer 5 pyramidal neurons in sections of motor cortex; assay: Golgi staining of cortical dendritic spines; format: in vivo, mice; conditions: knockout neurons; P28
Procedure: Samples (<1 cm) from P28 mice are fixed in 10% formalin and 3% potassium bichromate for 24 hours. Tissue is then transferred into 2% silver nitrate for 2 days in the dark at room temperature. Sections from these samples are then cut at 30 μm thickness into distilled water. Sections corresponding to motor cortex are mounted onto slides, air dried for 10 minutes, and then dehydrated through sequential rinses of 93% alcohol, 100% alcohol, and xylene, and then sealed with a coverslip. Images re acquired at 10× (whole cell) and 100× (spine imaging) using a Zeiss Pascal 3 Exciter confocal microscope.
We use Golgi staining to label neurons sparsely and distinctly, and applied high-resolution confocal imaging to measure dendritic spine density and morphology in the labelled cells, restricting analysis to layer 5 pyramidal neurons in sections of motor cortex from critical period mice (P28).
While low-magnification imaging clearly delineates the extent of the dendrites of the pyramidal cells we use higher magnifications to count synaptic contacts and determine the morphological class of each spine. We classify spines as either large and bulbous (“mushroom”, M), short and stubby (“stubby”, S), short and thin (“thin”, T) or filopodia (F).

C=CC[C@]12CCCN1C(=O)CNC2=O [cG-2-AllylP, (8aS)-Allyl-hexahydropyrrolo[1,2-a]pyrazine-1,4-dione]
olfactory habituation [1]: normal levels of habituation
tissue damage score ([2]; 2 ng icv 2 hours after HI, each brain region, vs vehicle p<0.001): significantly reduced the tissue damage in each brain region examined
neural damage after hypoxia/ischemia ([2]; 2, 4, 20, 100 ng icv, all other sites and all other doses): lessened the neural damage effects of hypoxia/ischemia
exploratory behavior (number of squares entered) ([3]; T1): significantly reduced the exploratory behavior of fmr1-knockout animals
number of squares entered ([3]; T1): about the same number of squares
exploratory behavior (number of squares entered) ([3]; T2 (10 minutes)): normalized the magnitude of their behavior to that of the wild-type animals
number of squares entered ([3]; T2 (10 minutes)): about 45 squares
exploratory behavior (number of squares entered) ([3]; T3 (24 hours)): normalized exploratory behavior at T3
number of squares entered ([3]; T3 (24 hours)): 25-30 squares
density of spines per unit branch [4]: largely ameliorated in the knockout with treatment
